{"source": "paper PMC2156105", "about": "(The Journal of biological chemistry, 2007)", "key": {"[1]": {"target": "AMPK γ2 subunit (Bateman domains) (Homo sapiens, UniProt Q9UGJ0)", "sequence (Q9UGJ0 275-562 limits assumed)": "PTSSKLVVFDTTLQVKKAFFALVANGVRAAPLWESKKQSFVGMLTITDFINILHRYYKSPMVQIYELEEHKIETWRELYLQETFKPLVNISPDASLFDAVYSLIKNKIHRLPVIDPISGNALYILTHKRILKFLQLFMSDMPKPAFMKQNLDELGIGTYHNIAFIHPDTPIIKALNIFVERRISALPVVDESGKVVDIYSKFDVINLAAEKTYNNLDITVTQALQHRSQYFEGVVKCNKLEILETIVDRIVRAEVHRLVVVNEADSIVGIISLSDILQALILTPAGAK", "assay": "scintillation proximity assay, displacement of [3H]AMP by unlabelled AMP", "type": "binding"}, "[2]": {"target": "AMP-activated protein kinase (AMPK), native rat liver αβγ complex (γ1 subunit) (Rattus norvegicus, UniProt P80385)", "sequence (P80385 whole entry)": "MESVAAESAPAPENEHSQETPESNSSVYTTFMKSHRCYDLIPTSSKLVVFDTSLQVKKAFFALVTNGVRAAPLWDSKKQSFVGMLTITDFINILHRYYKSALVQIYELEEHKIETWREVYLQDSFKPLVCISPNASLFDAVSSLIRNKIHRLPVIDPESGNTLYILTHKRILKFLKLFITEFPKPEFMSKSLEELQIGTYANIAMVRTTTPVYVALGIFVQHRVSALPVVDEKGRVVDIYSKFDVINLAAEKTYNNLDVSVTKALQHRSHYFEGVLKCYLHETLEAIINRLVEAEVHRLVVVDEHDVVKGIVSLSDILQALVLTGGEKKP", "sequence (P54645 whole entry partner)": "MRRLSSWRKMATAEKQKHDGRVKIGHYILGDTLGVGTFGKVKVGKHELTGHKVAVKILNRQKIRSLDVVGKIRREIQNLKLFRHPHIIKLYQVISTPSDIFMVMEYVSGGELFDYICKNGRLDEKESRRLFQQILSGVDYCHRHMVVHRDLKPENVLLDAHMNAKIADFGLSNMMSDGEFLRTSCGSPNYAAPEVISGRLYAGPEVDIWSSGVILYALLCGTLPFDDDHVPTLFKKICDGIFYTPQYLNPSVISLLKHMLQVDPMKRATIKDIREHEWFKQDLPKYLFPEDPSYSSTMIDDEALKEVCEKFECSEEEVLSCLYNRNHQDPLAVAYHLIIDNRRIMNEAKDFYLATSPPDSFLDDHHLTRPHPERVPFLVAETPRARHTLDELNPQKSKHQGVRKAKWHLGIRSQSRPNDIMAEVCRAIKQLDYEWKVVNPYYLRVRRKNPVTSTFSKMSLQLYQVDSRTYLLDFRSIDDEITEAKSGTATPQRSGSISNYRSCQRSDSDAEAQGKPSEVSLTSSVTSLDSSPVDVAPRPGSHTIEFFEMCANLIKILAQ", "sequence (Q09137 whole entry partner)": "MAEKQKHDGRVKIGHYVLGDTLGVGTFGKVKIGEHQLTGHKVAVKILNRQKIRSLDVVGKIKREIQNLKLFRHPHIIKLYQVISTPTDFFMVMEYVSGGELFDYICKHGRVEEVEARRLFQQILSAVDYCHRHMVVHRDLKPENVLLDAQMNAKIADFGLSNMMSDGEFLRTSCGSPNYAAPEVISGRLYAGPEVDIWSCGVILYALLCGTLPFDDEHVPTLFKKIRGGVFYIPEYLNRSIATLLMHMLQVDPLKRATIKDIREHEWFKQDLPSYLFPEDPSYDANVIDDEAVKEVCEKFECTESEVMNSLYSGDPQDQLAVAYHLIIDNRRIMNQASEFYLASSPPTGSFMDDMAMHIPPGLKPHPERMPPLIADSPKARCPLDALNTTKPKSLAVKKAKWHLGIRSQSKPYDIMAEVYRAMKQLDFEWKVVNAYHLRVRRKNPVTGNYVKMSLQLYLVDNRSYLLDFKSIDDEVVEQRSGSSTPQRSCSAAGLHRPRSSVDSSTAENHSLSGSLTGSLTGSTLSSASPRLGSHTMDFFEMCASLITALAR", "sequence (P80386 2-270 partner)": "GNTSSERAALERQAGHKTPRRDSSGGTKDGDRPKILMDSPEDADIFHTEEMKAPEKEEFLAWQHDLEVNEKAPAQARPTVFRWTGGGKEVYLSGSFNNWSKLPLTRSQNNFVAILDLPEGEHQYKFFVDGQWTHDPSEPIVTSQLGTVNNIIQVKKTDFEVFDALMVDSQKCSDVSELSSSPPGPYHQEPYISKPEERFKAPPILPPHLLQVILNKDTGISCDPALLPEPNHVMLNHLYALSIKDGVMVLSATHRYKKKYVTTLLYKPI", "assay": "kinase activity assay of purified rat liver AMPK", "type": "biochemical"}}}
{"smiles": "Nc1ncnc2c1ncn2[C@@H]1O[C@H](COP(=O)(O)O)[C@@H](O)[C@H]1O", "note": "[AMP]", "values": [{"measurement": "Kd", "setting": "[1]", "value": "80 ± 15", "unit": "µM"}, {"measurement": "EC50", "setting": "[2]", "value": "6 ± 3", "unit": "µM"}]}
